Experimental data as given in PMC10419174, “WR1065 conjugated to thiol-PEG polymers as novel anticancer prodrugs: broad spectrum efficacy, synergism, and drug resistance reversal” (Frontiers in Oncology, 2023).
Values joined by “and” are separate entries in the source; they are usually repeats but may differ in a detail not shown here. Equal entries are not always repeated. Where two headings read alike, the source gives them in different places.

Tests used:
[1] = system: Prostate PC3 cells; experiment: cells
Procedure: (§1) The percentage of growth inhibition was calculated as follows: […]

[2] = system: A549 NSCLC cells; experiment: cells
Procedure: as §1

[3] = system: NCI-H1975 NSCLC cells; experiment: cells
Procedure: as §1

[4] = system: Prostate DU145 cells; experiment: cells
Procedure: as §1

[5] = system: human cancer cell lines; experiment: cells
Procedure: as §1

[6] = system: Prostate LNCaP cells; experiment: cells
Procedure: as §1

[7] = system: Ovary SKOV3 cells; experiment: cells
Procedure: as §1

[8] = system: NCI-H460 NSCLC cells; details: 48-h treatment, amifostine ND = not definable up to 500 µM
Text: To test anticancer effectiveness of individual drugs or drug combinations, the CyQUANT®-NF proliferation assay was used with a plate reader (i) to generate standard curves for cell numbers for each cell line, (ii) to measure the starting cell numbers at initiation of drug treatment, and (iii) to obtain fluorescence readings from cells in 96-well plates for comparisons to a standard curve for the relevant cancer cell line and quantifying cell viability after drug treatments. […] Trypan blue exclusion was used to estimate cell numbers in a few pilot experiments and thereafter was applied to confirm very low viable cell numbers and cell death.
A series of experiments was conducted to determine the relative efficacy of 4SP65, 1LP65, and amifostine as single agents in the same human cancer cell lines.
Five metrics were calculated and used to characterize the shape of the dose-response curve following exposure to a single test agent. Using cell numbers based on fluorescence measurements and standard curves, the percentage growth was calculated at each drug concentration level. The percentage of growth inhibition was calculated as follows:
where Tz = cell numbers or fluorescence counts at time xero, C = vehicle-exposed control cell numbers at the end of the assessment time period, and Ti = test agent-exposed cell numbers or fluorescence counts at each drug concentration. […] The LC50/99 was calculated using Equation 2 = -50 and Eq. 2 = -99, respectively. […] For NHMECs, the relationships between drug exposure levels and fluorescence units were used to define dose-response metrics. The selectivity index values for individual drugs were calculated using IC50 levels in NHMECs divided by the IC50 value for each cancer cell line. Statistical comparisons of differences in individual dose-response metrics between drug treatments and cell lines were conducted using Student’s t-test, with P-values <0.05 considered significant.
Relative cell growth inhibition values for differing levels of each drug alone and in combination were input into SynergyFinder to generate dose-response curves for each drug alone and to produce a dose-response matrix. The dose-response matrix data then were used in generating a two-dimension heatmap and three-dimension volcano plot to visualize the distribution of areas of differing degrees of synergism and to calculate average and maximum synergy scores in selected human cancer cell lines. The expected drug combination responses were calculated using both the Highest Single Agent (HSA) model and the Zero interaction potency (ZIP) model.

[9] = Solubility, storage and stability of 4SP65 and 1LP65; format: physicochemical
Procedure: prepared for use and that was not altered by the solvent used, heating up to 37 °C for up to 3 days, and shaking or rocking for up to 3 days at RT or 4°C. For experiment, an aliquot of drug was first mixed in medium, the solvent was removed and saved, and gel pieces were recovered, dried on a vacuum pump, […]
The difference in the starting weight of drug placed into solvent minus the weight of the residue after drying on a vacuum pump was considered to represent the amount of drug that went into solution. The amount of drug that was dissolved at a given time ranged from 40 to 61%, averaging 50.7 ± 8.1% (SD). The weight of the 4SP65 in solution was then used for diluting the drug to concentrations of 200 or 400 µM in supplemented RPMI or DMEM/F12 medium for routine treatment of cells. The dried residue was not used in the in vitro drug efficacy studies. The formation of a gel in the aqueous solvents tested was unexpected since […]
few free thiols in polymer arms of the PEG scaffold for cross-linking reactions to occur. However, unintended topical entanglements between polymer chains of multi-arm PEG-thiol molecules without disulfide formation have been reported (Tang and Bradley 2014 24860800). Aliquots of 4SP65 dissolved in FBS enriched medium has remained stable for >6 months while remnants of the original viscous polymer have maintained stability without any apparent loss of activity when stored for 60 […]
However, the bulk of the product was dissolved at 40 mM in DMSO and stored in aliquots at −80°C for future use once by further dilution in DMSO and then final dilution in medium for treatment of normal human epithelium and human cancer cell lines at working solutions of 4 mM or 400 µM drug. 1LP65 has maintained stability for six months in frozen aliquots but should be stable in DMSO at −80°C for two to three years based upon recommended storage conditions for cystamine dihydrochloride (Selleck Chemical product information), an analogous 225 Da compound with a disulfide bond and amine groups like 1LP65. […]

[10] = 48-h treatment, amifostine ND = not definable up to 500 µM
[11] = read-out: LC50, 48-h treatment, amifostine ND = not definable up to 500 µM
[12] = pretreated with 1 mM DFMO for 24 h, then 48 h
[13] = without DFMO pretreatment, 48 h
[14] = 1LP65: average across 11 cell lines, 48 h
[15] = 15 cell lines for 4SP65, 11 for 1LP65
[16] = average of HCC38, MDA-MB-231, H1975, DU145, PC3
[17] = averages of dose-response metrics across the panel
[18] = averages over 11 cell lines, minimal fold differences

SMILES: COCCOCCOCCOCCOCCOCCSSCCNCCCN.O=C(O)C(F)(F)F.O=C(O)C(F)(F)F [1LP65, m-PEG6-S-S-WR1065]
- GI50 [1, 10]: 22.9 ± 1.8 µM
- IC50 [1, 10]: 37.5 ± 4.6 µM
- LC99 [1, 10]: 86.3 ± 8.9 µM
- TGI [1, 10]: 40.5 ± 2.8 µM and 40.5 µM
- Dose reduction value AMF ÷ 1LP65 ([1]; at GI50): 2.3 fold
- Dose reduction value AMF ÷ 1LP65 ([1]; at IC50): 2.8 fold
- Dose reduction value AMF ÷ 1LP65 ([1]; at TGI): 7.4 fold
- CC50 [1, 11]: 60 ± 1.1 µM
- CC50 [2]: 155 ± 8 µM
- GI50 [2]: 52.3 µM and 52 µM
- IC50 [2]: 66.6 ± 7.9 µM
- LC99 [2]: 187 ± 11 µM
- TGI [2]: 126 ± 3 µM and 126 µM
- Dose reduction value AMF ÷ 1LP65 ([2]; at GI50): 5.5 fold
- Dose reduction value AMF ÷ 1LP65 ([2]; at IC50): 4.4 fold
- GI50 [2, 12]: 17.1 µM
- IC50 [2, 12]: 33.1 µM
- GI50 [2, 13]: 38.6 µM
- IC50 [2, 13]: 51 µM
- GI50 [3, 10]: 38.9 ± 2 µM
- IC50 [3, 10]: 52.3 ± 4.4 µM
- LC99 [3, 10]: 86.8 ± 2.7 µM
- TGI [3, 10]: 51.8 ± 4.9 µM
- Dose reduction value AMF ÷ 1LP65 ([3]; at GI50): 3.3 fold
- CC50 [3, 11]: 63.3 ± 5.2 µM
- GI50 [4, 10]: 26.3 ± 3.8 µM
- IC50 [4, 10]: 39.8 ± 3.1 µM
- LC99 [4, 10]: 83.5 ± 5.5 µM
- TGI [4, 10]: 52.8 ± 5.3 µM and 52.8 µM
- Dose reduction value AMF ÷ 1LP65 ([4]; at GI50): 4.8 fold
- Dose reduction value AMF ÷ 1LP65 ([4]; at IC50): 8.0 fold
- CC50 [4, 11]: 71.4 ± 4.3 µM
- fold greater effect than amifostine [5]: 2.1 fold
- LC99, All cell lines [5, 14]: 126 ± 15.8 µM
- TGI, All cell lines [5, 14]: 69.3 ± 10.3 µM
- LC99, range for individual cell lines [5, 15]: 83.5 to 234 µM
- TGI, range for individual cell lines [5, 15]: 32.7 to 126 µM
- fold lower concentrations in TP53-mutant compared to TP53 wild-type cell lines ([5]; H1437 and TOV21G excluded, across dose-response metrics): ~ 1.8 fold
- LC99, TP53 Wild-Type ([5]; average of A549, H460, LNCaP): 161 ± 20.4 µM
- TGI, TP53 Wild-Type ([5]; average of A549, H460, LNCaP): 101 ± 20.1 µM
- LC99, TP53 Mutant [5, 16]: 95.1 ± 9.9 µM
- TGI, TP53 Mutant [5, 16]: 52.0 ± 7.3 µM
- fold more potent than amifostine as a cytostatic agent, average [5, 17]: 5.9 fold
- fold more potent than amifostine as a cytostatic agent, range [5, 17]: 5.0- to 6.4 fold
- Fold difference in drug potency vs amifostine: GI50 [5, 18]: > 5.0
- Fold difference in drug potency vs amifostine: IC50 [5, 18]: > 6.4
- Fold difference in drug potency vs amifostine: TGI [5, 18]: > 6.3
- GI50 ([5]; read-out: GI50, All cell lines, 1LP65: average across 11 cell lines, 48 h): 41.2 ± 5.4 µM
- GI50 ([5]; read-out: GI50, TP53 Mutant, average of HCC38, MDA-MB-231, H1975, DU145, PC3): 33.3 ± 3.7 µM
- GI50 ([5]; read-out: GI50, TP53 Wild-Type, average of A549, H460, LNCaP): 52.7 ± 12.4 µM
- GI50 ([5]; read-out: GI50, range for individual cell lines, 15 cell lines for 4SP65, 11 for 1LP65): 21.3 to 77.7 µM
- CC50 ([5]; read-out: LC50, All cell lines, 1LP65: average across 11 cell lines, 48 h): 94.6 ± 12.8 µM
- CC50 ([5]; read-out: LC50, TP53 Mutant, average of HCC38, MDA-MB-231, H1975, DU145, PC3): 72.9 ± 9.5 µM
- CC50 ([5]; read-out: LC50, TP53 Wild-Type, average of A549, H460, LNCaP): 133 ± 19.1 µM
- CC50 ([5]; read-out: LC50, range for individual cell lines, 15 cell lines for 4SP65, 11 for 1LP65): 51.3 to 157 µM
- GI50 ([5]; read-out: average GI50): 30.4 µM
- GI50 [6, 10]: 28.3 ± 1.9 µM
- IC50 [6, 10]: 44.3 ± 2.8 µM
- LC99 [6, 10]: 114 ± 8.4 µM
- TGI [6, 10]: 51.7 ± 3.8 µM
- Dose reduction value AMF ÷ 1LP65 ([6]; at GI50): 5.3 fold
- Dose reduction value AMF ÷ 1LP65 ([6]; at IC50): 8.5 fold
- CC50 [6, 11]: 88.8 ± 7.1 µM
- GI50 [7, 10]: 40.9 ± 0.5 µM
- IC50 [7, 10]: 45.5 ± 2.5 µM
- LC99 [7, 10]: 98.9 ± 8.6 µM
- TGI [7, 10]: 50.3 ± 2.0 µM and 50.3 µM
- Dose reduction value AMF ÷ 1LP65 ([7]; at GI50): 2.0 fold
- Dose reduction value AMF ÷ 1LP65 ([7]; at IC50): 6.5 fold
- CC50 [7, 11]: 68.8 ± 1.8 µM
- GI50 [8]: 77.7 ± 15 µM
- IC50 [8]: 90.1 ± 16.6 µM
- LC99 [8]: 182 ± 6.7 µM
- TGI [8]: 124 ± 13.3 µM and 124 µM
- CC50 ([8]; read-out: LC50): 155 ± 5.1 µM
- solubility [9]: soluble 100% DMSO or aqueous solution
- time of maintained stability ([9]; frozen aliquots in DMSO at −80°C): six
